Laboratory results reported in US20210179636A1, “ANTIBACTERIAL COMPOUNDS” (priority 2016, published 2021).
≈ marks a conversion by molar mass, not a printed value.

Legend:
E. coli MG1655 D87G = assay type: cell-based, Escherichia coli; conditions: compared to the isogenic parent strain E. coli MG1655; D87G mutation on DNA gyrase subunit GyrA
E. coli MG1655 WT = experiment: MIC, broth microdilution (CLSI); assay type: cell-based, Escherichia coli; conditions: Escherichia coli, MG1655
[1] = test system: Acinetobacter baumannii NCTC 13420; experiment: MIC, broth microdilution (CLSI); assay type: cell-based; conditions: Acinetobacter baumannii, NCTC13420; A. baumannii NCTC 13420; 16-20 h; mode of three experiments; read-out: MIC
[2] = test system: Enterobacter cloacae NCTC 13406; experiment: MIC, broth microdilution (CLSI); assay type: cell-based; conditions: Enterobacter cloacae, NCTC13406; E. cloacae NCTC 13406; 16-20 h; mode of three experiments; read-out: MIC
[3] = test system: Streptococcus pneumoniae ATCC 49619; experiment: MIC, broth microdilution (CLSI); assay type: cell-based; conditions: Streptococcus pneumoniae, ATCC49619; S. pneumoniae ATCC 49619; 16-20 h; mode of three experiments; read-out: MIC
[4] = test system: Acinetobacter baumannii ATCC 19606; experiment: MIC, broth microdilution (CLSI); assay type: cell-based; conditions: Acinetobacter baumannii, ATCC19606; A. baumannii ATCC 19606; 16-20 h; mode of three experiments; read-out: MIC
HepG2 ATCC HB-8065 = experiment: Human cell viability assay (CellTiter-Glo); assay type: cell-based; conditions: for IC50: Homo sapiens, HepG2 cell viability, 24 h with compound, range 1-128 μg/mL; for toxicity against HepG2 human hepatic cell line (in words): summary of Table 3
Protocol: Compounds are assessed for potential non-specific cytotoxic effects against a human hepatic cell line (HepG2 ATCC HB-8065). HepG2 cells are seeded at 20,000 cells/well in 96-well microtitre plates in minimal essential medium (MEM) supplemented with a final concentration of 10% FBS and 1 mM sodium pyruvate. After 24 h compound dilutions are prepared in Dulbecco's minimum essential media (DMEM) supplemented with final concentrations of 0.001% FBS, 0.3% bovine albumin and 0.02% HEPES and added to cells. Compounds are tested in two-fold serial dilutions over a final concentration range of 1-128 μg/mL in a final DMSO concentration of 1% vol/vol. Chlorpromazine is used as a positive control. Cells are incubated with compound at 37° C. and 5% CO2 for a further 24 h, after which time the CellTiter-Glo reagent (Promega) is added. Luminescence is measured on a BMG Omega plate reader. Data are analysed using GraphPad Prism software to determine the concentration of compound that inhibits cell viability by fifty percent (IC50).

[5] = test system: Haemophilus influenzae ATCC 49247; experiment: MIC, broth microdilution (CLSI); assay type: cell-based; conditions: Haemophilus influenzae, ATCC49247; H. influenzae ATCC 49247; 16-20 h; mode of three experiments; read-out: MIC
[6] = test system: Klebsiella pneumoniae ATCC 700603; experiment: MIC, broth microdilution (CLSI); assay type: cell-based; conditions: Klebsiella pneumoniae, ATCC700603; K. pneumoniae ATCC 700603; 16-20 h; mode of three experiments; read-out: MIC
E. coli MG1655 S83L = assay type: cell-based, Escherichia coli; conditions: compared to the isogenic parent strain E. coli MG1655; S83L mutation on DNA gyrase subunit GyrA
[7] = test system: Escherichia coli ATCC 25922; experiment: MIC, broth microdilution (CLSI); assay type: cell-based; conditions: Escherichia coli, ATCC25922; E. coli ATCC 25922; 16-20 h; mode of three experiments; read-out: MIC
E. coli ATCC BAA-2452 = experiment: MIC, broth microdilution (CLSI); assay type: cell-based, Escherichia coli; conditions: Escherichia coli, 16-20 h, mode of three experiments, read-out: MIC
[8] = test system: Pseudomonas aeruginosa ATCC 27853; experiment: MIC, broth microdilution (CLSI); assay type: cell-based; conditions: Pseudomonas aeruginosa, ATCC27853; P. aeruginosa ATCC 27853; 16-20 h; mode of three experiments; read-out: MIC
[9] = test system: Staphylococcus aureus ATCC 29213; experiment: MIC, broth microdilution (CLSI); assay type: cell-based; conditions: Staphylococcus aureus, ATCC29213; S. aureus ATCC 29213; 16-20 h; mode of three experiments; read-out: MIC
E. coli NCTC 13476 = experiment: MIC, broth microdilution (CLSI); assay type: cell-based, Escherichia coli; conditions: Escherichia coli, NCTC13476, 16-20 h, mode of three experiments, read-out: MIC

Row | SMILES | Fold increase in MIC against E. coli MG1655 D87G (E. coli MG1655 D87G) | MIC (E. coli MG1655 WT) | MIC [1] | MIC [2] | MIC [3] | MIC [4] | IC50 (HepG2 ATCC HB-8065) | MIC [5] | MIC [6] | Fold increase in MIC against E. coli MG1655 S83L (E. coli MG1655 S83L) | MIC [7] | MIC (E. coli ATCC BAA-2452) | MIC [8] | MIC [9] | MIC (E. coli NCTC 13476) | toxicity against HepG2 human hepatic cell line (in words) (HepG2 ATCC HB-8065)
1 | N#Cc1ccc2ccc(=O)n(CCN3CC4CN(c5ccc6c(n5)NC(=O)CO6)C(=O)O[C@H]4C3)c2c1 (stereo in doubt) [Compound 17, 1-{2-[(4aS,7aR)-2-oxo-3-{3-oxo-2H,3H,4H-pyrido[3,2-b][1,4]oxazin-6-yl}-octahydropyrrolo[3,4-e][1,3]oxazin-6-yl]ethyl}-2-oxo-1,2-dihydroquinoline-7-carbonitrile] | 2 fold | < 1 µg/mL | < 1 µg/mL | 1 to 10 µg/mL (≈ 2.06 to 20.6 µM) | < 1 µg/mL | 1 to 10 µg/mL (≈ 2.06 to 20.6 µM) | > 100 µg/mL | < 1 µg/mL | 10 to 100 µg/mL (≈ 20.6 to 206 µM) | 0.5 fold | < 1 µg/mL | 1 to 10 µg/mL (≈ 2.06 to 20.6 µM) | 1 to 10 µg/mL (≈ 2.06 to 20.6 µM) | < 1 µg/mL | 1 to 10 µg/mL (≈ 2.06 to 20.6 µM) | –
2 | N#Cc1ccc2ccc(=O)n(CCCN3C[C@H]4CN(c5ccc6c(n5)NC(=O)CO6)C(=O)O[C@@H]4C3)c2c1 (relative stereo) [Compound 14, rel-1-{3-[(4aS*,7aR*)-2-oxo-3-{3-oxo-2H,3H,4H-pyrido[3,2-b]1,4]oxazin-6-yl}-octahydropyrrolo[3,4-e][1,3]oxazin-6-yl]propyl}-2-oxo-1,2-dihydroquinoline-7-carbonitrile] | 2 fold | – | < 1 µg/mL | 1 to 10 µg/mL (≈ 2 to 20 µM) | < 1 µg/mL | 1 to 10 µg/mL (≈ 2 to 20 µM) | 10 to 100 µg/mL (≈ 20 to 200 µM) | < 1 µg/mL | 1 to 10 µg/mL (≈ 2 to 20 µM) | 4 fold | < 1 µg/mL | < 1 µg/mL | 1 to 10 µg/mL (≈ 2 to 20 µM) | < 1 µg/mL | 1 to 10 µg/mL (≈ 2 to 20 µM) | acceptable level of hepatic toxicity
3 | COc1ccc2ccc(=O)n(CCN3CC4CN(c5ccc6c(n5)NC(=O)CO6)C(=O)OC4C3)c2n1 (stereo not drawn) [Compound 16, rel-1-{2-[(4aR*,7aR*)-2-oxo-3-{3-oxo-2H,3H,4H-pyrido[3,2-b][1,4]oxazin-6-yl}-octahydropyrrolo[3,4-e][1,3]oxazin-6-yl]ethyl}-7-methoxy-1,2-dihydro-1,8-naphthyridin-2-one] | – | – | < 1 µg/mL | 1 to 10 µg/mL (≈ 2.03 to 20.3 µM) | < 1 µg/mL | < 1 µg/mL | > 100 µg/mL | < 1 µg/mL | 10 to 100 µg/mL (≈ 20.3 to 203 µM) | – | < 1 µg/mL | – | 10 to 100 µg/mL (≈ 20.3 to 203 µM) | < 1 µg/mL | – | –
4 | C[C@H]1COc2c(N3CCN(C)CC3)c(F)cc3c(=O)c(C(=O)O)cn1c23 [LEV, levofloxacin, reference compound] | 8 fold | – | – | – | – | – | – | – | – | 8 fold | – | – | – | – | – | –
5 | NCCCOc1ccc2ccc(=O)n(CCN3C[C@@H]4CN(c5ccc6c(n5)NC(=O)CO6)C(=O)O[C@H]4C3)c2n1 (relative stereo) [Compound 8] | – | – | > 100 µg/mL | > 100 µg/mL | 1 to 10 µg/mL (≈ 1.87 to 18.7 µM) | – | > 100 µg/mL | > 100 µg/mL | > 100 µg/mL | – | 10 to 100 µg/mL (≈ 18.7 to 187 µM) | – | 10 to 100 µg/mL (≈ 18.7 to 187 µM) | 1 to 10 µg/mL (≈ 1.87 to 18.7 µM) | – | –
6 | O=C1COc2ccc(N3C[C@@H]4CN(CCCn5c(=O)ccc6ccccc65)C[C@@H]4OC3=O)nc2N1 (relative stereo) [Compound 4, rel-1-{3-[(4aS*,7aR*)-2-oxo-3-{3-oxo-2H,3H,4H-pyrido[3,2-b][1,4]oxazin-6-yl}-octahydropyrrolo[3,4-e][1,3]oxazin-6-yl]propyl}-1,2-dihydroquinolin-2-one] | – | – | < 1 µg/mL | < 1 µg/mL | – | – | > 100 µg/mL | – | 1 to 10 µg/mL (≈ 2.1 to 21 µM) | – | < 1 µg/mL | – | 1 to 10 µg/mL (≈ 2.1 to 21 µM) | < 1 µg/mL | – | –
7 | NCCCOc1ccc2ccc(=O)n(CCCN3CC4CN(c5ccc6c(n5)NC(=O)CO6)C(=O)OC4C3)c2n1 (stereo not drawn) [Compound 6, rel-1-{3-[(4aS*,7aR*)-2-oxo-3-{3-oxo-2H,3H,4H-pyrido[3,2-b][1,4]oxazin-6-yl}-octahydropyrrolo[3,4-e][1,3]oxazin-6-yl]propyl}-7-(3-aminopropoxy)-1,2-dihydro-1,8-naphthyridin-2-one] | – | – | > 100 µg/mL | > 100 µg/mL | 1 to 10 µg/mL (≈ 1.82 to 18.2 µM) | – | > 100 µg/mL | > 100 µg/mL | > 100 µg/mL | – | 1 to 10 µg/mL (≈ 1.82 to 18.2 µM) | – | 10 to 100 µg/mL (≈ 18.2 to 182 µM) | 1 to 10 µg/mL (≈ 1.82 to 18.2 µM) | – | –
8 | COc1ncc2ccc(=O)n(CCN3C[C@H]4CN(c5ccc6c(n5)NC(=O)CO6)C(=O)O[C@@H]4C3)c2n1 (relative stereo) [Compound 13, rel-(4aS*,7aR*-6-(2-{2-methoxy-7-oxo-7H,8H-pyrido[2,3-d]pyrimidin-8-yl}ethyl)-3-{3-oxo-2H,3H,4H-pyrido[3,2-b][1,4]oxazin-6-yl}-octahydropyrrolo[3,4-e][1,3]oxazin-2-one] | – | – | 10 to 100 µg/mL (≈ 20.3 to 203 µM) | 10 to 100 µg/mL (≈ 20.3 to 203 µM) | 1 to 10 µg/mL (≈ 2.03 to 20.3 µM) | – | 1 to 10 µg/mL (≈ 2.03 to 20.3 µM) | 1 to 10 µg/mL (≈ 2.03 to 20.3 µM) | 10 to 100 µg/mL (≈ 20.3 to 203 µM) | – | – | – | 10 to 100 µg/mL (≈ 20.3 to 203 µM) | < 1 µg/mL | – | –
9 | O=C1COc2ccc(N3C[C@H]4CN(CCn5c(=O)ccc6ccc(OCCO)nc65)C[C@@H]4OC3=O)nc2N1 (relative stereo) [Compound 5] | – | – | > 100 µg/mL | 10 to 100 µg/mL (≈ 19.1 to 191 µM) | 1 to 10 µg/mL (≈ 1.91 to 19.1 µM) | – | > 100 µg/mL | 1 to 10 µg/mL (≈ 1.91 to 19.1 µM) | > 100 µg/mL | – | 10 to 100 µg/mL (≈ 19.1 to 191 µM) | – | 10 to 100 µg/mL (≈ 19.1 to 191 µM) | < 1 µg/mL | – | –
10 | COc1ncc2ccc(=O)n(CCCN3CC4CN(c5ccc6c(n5)NC(=O)CO6)C(=O)OC4C3)c2n1 (stereo not drawn) [Compound 11, rel-(4aS*,7aR*)-6-(3-{2-methoxy-7-oxo-7H,8H-pyrido[2,3-d]pyrimidin-8-yl}propyl)-3-{3-oxo-2H,3H,4H-pyrido[3,2-b][1,4]oxazin-6-yl}-octahydropyrrolo[3,4-e][1,3]oxazin-2-one] | – | – | 10 to 100 µg/mL (≈ 19.7 to 197 µM) | 1 to 10 µg/mL (≈ 1.97 to 19.7 µM) | < 1 µg/mL | – | 10 to 100 µg/mL (≈ 19.7 to 197 µM) | < 1 µg/mL | 10 to 100 µg/mL (≈ 19.7 to 197 µM) | – | 1 to 10 µg/mL (≈ 1.97 to 19.7 µM) | – | 10 to 100 µg/mL (≈ 19.7 to 197 µM) | < 1 µg/mL | – | acceptable level of hepatic toxicity
